The target in test [1] is T1, CRTH2 (Homo sapiens, UniProt Q9Y5Y4).
T1 sequence (Q9Y5Y4 1-395): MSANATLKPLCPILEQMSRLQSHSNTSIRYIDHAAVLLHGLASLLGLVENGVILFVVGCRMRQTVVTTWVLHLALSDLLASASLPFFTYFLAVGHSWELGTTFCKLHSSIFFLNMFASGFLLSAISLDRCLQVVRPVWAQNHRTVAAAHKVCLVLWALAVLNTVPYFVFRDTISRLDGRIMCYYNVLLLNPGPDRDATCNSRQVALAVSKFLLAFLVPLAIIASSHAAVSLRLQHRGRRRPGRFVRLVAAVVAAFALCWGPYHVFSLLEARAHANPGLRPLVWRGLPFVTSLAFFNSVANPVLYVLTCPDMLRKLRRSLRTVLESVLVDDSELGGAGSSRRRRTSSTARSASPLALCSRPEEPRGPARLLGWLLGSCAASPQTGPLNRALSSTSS
Put plainly: [35S]GTPγS binding assay (CHO-CRTH2 cell membranes). The conditions noted are these: for IC50: antagonist mode, fixed concentration of PGD2 (EC80); for Emax: inverse agonists, 100% of Emax = activity with 1 μM PGD2. The class given is biochemical. Details: expressed in transfected cells; host or cells: CHO-CRTH2 cells. On the procedure:
Adherent CHO cells expressing hCRTH2 (Euroscreen, Belgium) were cultured in 225 cm^2 cell culture flasks (Corning, USA) in 30 ml of medium. After two rinses of phosphate buffered saline (PBS), cells were harvested in 10 ml of PBS containing 1 mM EDTA, centrifuged at 500×g for 5 min at 4° C. and frozen at −80° C. The pellet was re-suspended in 50 mM Tris-HCl, pH 7.4, 2 mM EDTA, 250 mM Sucrose, containing protease inhibitor cocktail tablets, (Complete EDTA-free, Roche, Germany) and incubated 30 min at 4° C. Cells were disrupted by nitrogen cavitation (Parr Instruments, USA) at 4° C. (800 p.s.i. for 30 min), and centrifuged at 500×g for 10 min at 4° C. Pellet containing nuclei and cellular debris was discarded and supernatant was centrifuged 60 min at 4° C. at 45000×g. Membrane pellet was re-suspended in storage buffer (10 mM HEPES/KOH pH 7.4, 1 mM EDTA, 250 mM sucrose, protease inhibitor cocktail tablets) using Dounce homogenization and frozen in liquid nitrogen, and stored at −80° C.
The [^35S]GTPγS assay measures the increase in guanine nucleotide exchange at G-proteins in cell membranes, resulting from agonist (PGD2) binding to CRTH2. This process can be monitored in vitro by incubating cell membranes containing G-proteins and CRTH2 with GDP and [^35S]GTPγS, a radiolabeled, hydrolysis-resistant analogue of GTP (see, Harrison et al., Life Sciences 74, 489-508, 2003). The addition of a Compounds of Formula (I) results in binding to CRTH2 and thus in an inhibition of agonist binding, which can be monitored as inhibition of the stimulation of GTP/GDP exchange.
Briefly, Compounds of Formula (I) are incubated in 96-well scintillating white polystyrene plates (Perkin Elmer, USA) in a final volume of 200 μl containing 20 mM HEPES/KOH pH 7.4, 3 mM MgCl2, 10 μg/ml Saponin, 5 μM GDP, 75 mM NaCl and 2% of dimethylsulphoxide (DMSO). Reaction is triggered by the addition of 5-10 μg of CHO-CRTH2 cell membranes and 0.15 nM [^35S]GTPγS. After 60 min incubation at 30° C., reaction is stopped by centrifugation at 700×g, at 4° C. for 10 minutes and supernatant is removed. The radioactivity coming from the [^35S]GTPγS bound on centrifuged cell membranes is recorded using a 1450 Micro-beta scintillation counter. For IC50 determination, increasing concentrations of compounds are incubated in presence of a fixed concentration of PGD2 (EC80). For EC50 measurements, compounds are incubated without addition of PGD2. Basal [^35S]GTPγS activity is determined without addition of any ligands or compounds. 100% [^35S]GTPγS activity is measured by the addition of 1 μM of PGD2.

Test [2] has as its target T1, CRTH2. The test is described as follows: Radioligand binding Scintillation Proximity Assay ([3H]PGD2, hCRTH2-CHO cell membranes). Details: host or cells: CHO cells. To be noted: 1.5 nM [3H]PGD2, hCRTH2-CHO cell membranes, SPA. The method in brief: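 SPA competition binding at room temperature, 90 min with agitation: 1.5 nM [3H]PGD2, 10-50 μg/ml hCRTH2-CHO membrane protein, WGA SPA beads, HEPES pH 7.4 with 10 mM MnCl2, 1% DMSO. Non-specific binding defined with 10 μM PGD2; scintillation counting.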
Background: SPA uses beads or plates that emit light when radiolabelled molecules are held near them.

Test [3] deals with T1, CRTH2. The test is described as follows: Cellular Dielectric Spectroscopy (CHO-CRTH2 cells). The conditions noted are these: for IC50: antagonist mode, fixed concentration of PGD2 (EC80); for EC50 / Emax: partial agonists, agonist activity without PGD2. It counts as cell-based. Details: expressed in transfected cells; host or cells: CHO-CRTH2 cells. How it is done: Cellular Dielectric Spectroscopy (CDS) is a label-free technology based on the measurement of complex impedance changes (delta Z or dZ). Impedance (Z) is related to the ratio of voltage to current as described by Ohm's law (Z=V/I). In order to measure the changes in impedance that occur in response to receptor stimulation, mammalian cells are seeded onto a custom 96-well microliter plate that contains electrodes at the bottom of each well. Key contributors to the impedance measurements are changes in cell-substrate adherence, changes in cell shape and volume, and changes in cell-cell interactions. These factors individually or collectively affect the flow of current, influencing the magnitude and characteristics of the signal measured. G-protein coupled receptors ligand-induced activity can be measured using this technology and specific G protein coupling can be identified. Activities of reference agonist and antagonist molecules of CRTH2 have been measured using this assay and similar results were obtained compared to different functional assays.
CHO-CRTH2 cells are cultured in HAM's F12 (Lonza, Switzerland) supplemented with 10% foetal calf serum (PAA, Australia) and 400 μg/ml Geneticin. 100000 cells/well are seeded in standard 96W Microplates (MDS Analytical Technologies) and incubated at 37° C. in 5% CO2 for 24 hours. Cells are washed twice with 135 μl of cell key buffer (Hank's Balanced Salt Solution 1× (HBSS) (Invitrogen) supplemented with 10 mM HEPES pH 7.4 in presence of 1% DMSO). For EC50 determination. 15 μl of increasing concentration of Compounds of Formula (I) diluted in cell key buffer are added to the cells and agonist activity is then recorded for 25 minutes. […] Results are expressed as the amplitude between the highest and the lowest signal produced (max-min). Basal and maximum activities are measured, respectively in absence or presence of PGD2 (EC80).

In the case of `O=C(O)COc1ccc(Cl)cc1C#Cc1cccc(Cl)c1` [Example 3, {4-chloro-2-[(3-chlorophenyl)ethynyl]phenoxy}acetic acid], the results for the half-maximal inhibitory concentration (IC50) in test [1] and in test [2] were 105 nM and 26 nM, respectively.

As to `O=C(O)COc1ccc(Cl)cc1C#Cc1ccccc1Cl` [Example 4, {4-chloro-2-[(2-chlorophenyl)ethynyl]phenoxy}acetic acid], the IC50 came to 37 nM in test [1] and 15 nM in test [2].

Regarding `O=C(O)COc1ccc(Cl)cc1C#Cc1cccc(S(=O)(=O)CCO)c1` [Example 20, [4-chloro-2-({3-[(2-hydroxyethyl)sulfonyl]phenyl}ethynyl)phenoxy]acetic acid], the results for the concentration for half-maximal inhibition (IC50) in test [1] and in test [2] were 288 nM and 12 nM, respectively.

In the case of `CCCS(=O)(=O)c1cccc(C#Cc2cc(C#N)ccc2OCC(=O)O)c1` [Example 32, (4-cyano-2-{[3-(propylsulfonyl)phenyl]ethynyl}phenoxy)acetic acid], the values for the IC50 in test [1] and in test [2] were 185 nM and 25 nM, respectively.

Regarding `CCCS(=O)(=O)c1ccc(C)c(C#Cc2cc(C#N)ccc2OCC(=O)O)c1` [Example 40, (4-cyano-2-{[2-methyl-5-(propylsulfonyl)phenyl]ethynyl}phenoxy)acetic acid], the IC50 in test [1] was found to be 39 nM; in test [2] it was 9 nM.

With `CCCc1ccncc1C#Cc1cc(Cl)ccc1OCC(=O)O` [Example 42, {4-chloro-2-[(4-propylpyridin-3-yl)ethynyl]phenoxy}acetic acid], the IC50 was 10 nM in test [1], 25 nM in test [3] and 5 nM in test [2].

Take `CC(C)Cc1ccncc1C#Cc1cc(Cl)ccc1OCC(=O)O` [Example 43, {4-chloro-2-[(4-isobutylpyridin-3-yl)ethynyl]phenoxy}acetic acid]: the half-maximal inhibitory concentration (IC50) in test [3] came out at 269 nM; in test [2] it was 6 nM.

Consider `Cc1ccc(S(=O)(=O)CC(C)C)cc1C#Cc1cc(Cl)ccc1OCC(=O)O` [Example 53, (4-chloro-2-{[5-(isobutylsulfonyl)-2-methylphenyl]ethynyl}phenoxy)acetic acid], for which the values for the half-inhibitory concentration (IC50) in test [3] and in test [2] were 50 nM and 5 nM, respectively.

Take `Cc1ccc(S(=O)(=O)CCCO)cc1C#Cc1cc(Cl)ccc1OCC(=O)O` [Example 54, [4-chloro-2-({5-[(3-hydroxypropyl)sulfonyl]-2-methylphenyl}ethynyl)phenoxy]acetic acid]: the half-maximal inhibitory concentration (IC50) in test [3] turned out to be 37 nM; in test [2], 10 nM.

For `CCCS(=O)(=O)c1cccc(C#Cc2cc(C(F)(F)F)ccc2OCC(=O)O)c1` [Example 55, [2-{[3-(propylsulfonyl)phenyl]ethynyl}-4-(trifluoromethyl)phenoxy]acetic acid], in test [3], the EC50 was determined as 24 nM and the Emax was determined as 62%. The 50% inhibitory concentration (IC50) in test [2] was 13 nM.

For the compound `CN(C)S(=O)(=O)c1cncc(C#Cc2cc(C#N)ccc2OCC(=O)O)c1` [Example 67, [4-cyano-2-({5-[(dimethylamino)sulfonyl]pyridin-3-yl}ethynyl)phenoxy]acetic acid], the IC50 in test [3] came out at 34 nM; in test [2], 86 nM.

As to `CC(C)c1ccc(S(C)(=O)=O)cc1C#Cc1cc(Cl)ccc1OCC(=O)O` [Example 70, (4-chloro-2-{[2-isopropyl-5-(methylsulfonyl)phenyl]ethynyl}phenoxy)acetic acid], the half-maximal inhibitory concentration (IC50) was determined as 21 nM in test [3] and 7 nM in test [2].

For the compound `CC(C)c1ccc(S(C)(=O)=O)cc1C#Cc1cc(C#N)ccc1OCC(=O)O` [Example 71, (4-cyano-2-{[2-isopropyl-5-(methylsulfonyl)phenyl]ethynyl}phenoxy)acetic acid], the concentration for half-maximal inhibition (IC50) in test [3] was 15 nM; in test [2], 16 nM.

Regarding `Cc1ccc(S(=O)(=O)NC(C)C)cc1C#Cc1cc(Cl)ccc1OCC(=O)O` [Example 86, [4-chloro-2-({5-[(isopropylamino)sulfonyl]-2-methylphenyl}ethynyl)phenoxy]acetic acid], the results for the concentration for half-maximal inhibition (IC50) in test [3] and in test [2] were 118 nM and 5 nM, respectively.

Take `Cc1ccc(S(=O)(=O)N(C)C(C)C)cc1C#Cc1cc(Cl)ccc1OCC(=O)O` [Example 87, {4-chloro-2-[(5-{[isopropyl(methyl)amino]sulfonyl}-2-methylphenyl)ethynyl]phenoxy}acetic acid]: the results for the IC50 in test [3] and in test [2] were 83 nM and 6 nM, respectively.

With `CCCS(=O)(=O)c1cccc(C#Cc2cc(-c3ccccc3)ccc2OCC(=O)O)c1` [Example 131, [(3-{[3-(Propylsulfonyl)phenyl]ethynyl}biphenyl-4-yl)oxy]acetic acid], in test [3], the concentration for a half-maximal effect (EC50) turned out to be 74 nM and the Emax was found to be 68%. This compound also displayed an IC50 in test [2] of 24 nM.

For the compound `CS(=O)(=O)c1cc(C#Cc2cc(Cl)ccc2OCC(=O)O)ccc1-c1ccccc1` [Example 140, (4-chloro-2-{[2-(methylsulfonyl)biphenyl-4-yl]ethynyl}phenoxy)acetic acid], in test [1], the IC50 came to 37 nM and the Emax is -11%. The compound also had a half-inhibitory concentration (IC50) in test [2] of 6 nM.

With `CC(=O)Nc1ccc(C#Cc2cc(Cl)ccc2OCC(=O)O)cc1` [Example 152, (2-{[4-(acetylamino)phenyl]ethynyl}-4-chlorophenoxy)acetic acid], the Emax in test [1] is -13%. The compound also registered an IC50 in test [2] of 28 nM.

Turning to `CCCS(=O)(=O)c1ccc(F)c(C#Cc2cc(Cl)ccc2OC(C)C(=O)O)c1` (stereo not drawn) [Example 168, 2-(4-chloro-2-{[2-fluoro-5-(propylsulfonyl)phenyl]ethynyl}phenoxy)propanoic acid], the results for the 50% inhibitory concentration (IC50) in test [1] and in test [2] were 9 nM and 3 nM, respectively. In addition, the Emax in test [1] was -13%.

On to `CCCS(=O)(=O)c1ccc(C)c(C#Cc2cc(Cl)ccc2OC(C)C(=O)O)c1` (stereo not drawn) [Example 173, 2-(4-chloro-2-{[2-methyl-5-(propylsulfonyl)phenyl]ethynyl}phenoxy)propanoic acid], for which the IC50 in test [1] turned out to be 7 nM; in test [2], 1 nM.

Usually IC50 stands for the concentration that gives 50% inhibition. The term EC50 denotes the concentration at which the effect is half-maximal. The low end stands for greater potency, the high end for weaker potency. The Emax is the maximal effect, on the per cent scale that the assay sets.

The values above are taken from patent publication US8273769B2, “Phenoxy acetic acid derivatives” (Merck Serono SA, priority 2009, dated 2012).
